Measured values taken from US20240000746A1, “New Cooling Agents and Preparations Containing Them” (Symrise AG, priority 2020, published 2024).
Several values for one entry are separate records, joined by “and”; a condition that tells them apart may be missing. Equal values may be shown once.

System: oral cavity
Experiment: Sensory tasting of cooling intensity by trained panellists
Type: in vivo, human
Conditions: 5 ppm in 5% sugar solution, tasted 40 seconds, rated after one minute, scale 1 (very weak) to 9 (very strong)
Experimental: In order to quantify the cooling effect, comparative tests are carried out using menthan-3-carboxylic acid-N-ethylamide as a reference. For these comparative tests, the skilled person replaces the compound or compounds to be used according to the invention with menthan-3-carboxylic acid-N-ethylamide (also referred to as WS-3). Then the intensities of the cooling effects of the respective compounds or active substances are sensory evaluated by trained panellists (n=10 to 11) as described below and compared with each other.
The investigation of the cooling intensity was carried out as follows: Test solutions containing 5 ppm of the compounds of the invention were each tasted in a 5% sugar solution as well as a corresponding solution containing 30 ppm of the reference substance WS-3. […] The corresponding test solutions were tasted by the panellists for a time of exactly 40 seconds, rinsing the entire oral cavity with the corresponding test solution and then spitting out the sample or reference solution. Following the tasting, the test persons rated the respective cooling intensity after one minute according to a scale from 1 (very weak) to 9 (very strong).

| Compound | Cooling intensity |
| --- | --- |
| COc1ccc(C(C)NCc2ccnc(N3CCCCC3)c2)cc1 (centres unmarked) [Compound 85] | 2.1 |

Molecular target: T1, human TRPM8 receptor (Homo sapiens, UniProt Q7Z2W7)
T1 construct: expressed in transfected cells
Experiment: Assay on TRPM8 modulators: Ca2+ signal (Fluo-4) in HEK293 cells stably transfected with human TRPM8
Type: cell-based
Design: Relative TRPM8 activation (%): concentration or dose not given beside the values
Conditions: not given
Excerpt: The starting point for cloning the human TRPM8 receptor is an LnCaP cDNA bank. This is commercially available (e.g. BioChain, Hayward, USA) or can be produced from the androgene-sensitive human prostate adenocarcinoma cell line LnCaP (e.g. ATCC, CRL1740 or ECACC, 891 1021 1) using standard kits.
The coding TRPM8 sequence (see e.g. http://www. ncbi.nlm.nih.gov/entrez/viewer.fcgi?db=nuccore&id=109689694) can be PCR amplified and cloned using standard methods. The human TRPM8 gene isolated in this way was used to produce the plasmid plnd_M8. Alternatively, the TRPM8 gene can also be produced synthetically.
As a test cell system, a stably transfected HEK293 cell line was produced with human TRPM8 DNA. Preference is given to HEK293, which offers the possibility of inducing TRPM8 expression with tetracycline via the introduced plasmid.
A test similar to the one already described in the literature by Behrendt H. J. et al., Br. J. Pharmacol. 141, 2004, 737-745, is performed. The agonisation or antagonisation of the receptor can be quantified by means of a Cab-sensitive dye (e.g. FURA, Fluo-4 etc.). Agonists alone cause an increase in the Ca^2+ signal; antagonists cause a reduction in the Ca^2+ signal in the presence of e.g. menthol (in each case detected via the dye Fluo-4, which has different fluorescence properties due to Ca^2+ ions).
First, a fresh culture of transformed HEK cells is prepared in cell culture flasks in a manner known per se. The HEK293-TRPM8 test cells are detached from the cell culture flasks using trypsin and 40,000 cells/well are seeded with 100 μl medium in 96-hole plates (Greiner #655948 poly-D-lysine-coated). Tetracycline is added to the growth medium to induce receptor TRPM8 (DMEM/HG, 10% FCS tetracycline-free, 4 mM L-glutamine, 15 μg/ml blasticidin, 100 μg/ml hygromycin B, 1 μg/ml tetracycline).
The following day, the cells are loaded with Fluo-4AM dye and the test is performed. The procedure is as follows: Addition of 100 μl/well staining solution Ca-4 Kit (RB 141, Molecular Devices) to each 100 μl medium (DMEM/HG, 10% FCS tetracycline-free, 4 mM L-glutamine, 15 μg/ml blasticidin, 100 μg/ml hygromycin B, 1 μg/ml tetracycline).
Incubation in incubator, 30 minutes/37° C./5% CO2, 30 minutes/RT.
Preparation of the test substances (different concentrations in 200 μl HBSS buffer), as well as positive controls (different concentrations of menthol, icilin or lonomycin in 200 μl HBSS buffer) and negative controls (only 200 μl HBSS buffer) addition of the test substances in amounts of 50 μl/well and measurement of the fluorescence change (e.g. in the assay device FLIPR, Molecular Devices or NovoStar, BMG) at 485 nm excitation, 520 nm emission, and evaluation of the potency of the different substances/concentrations and determination of the EC50 values.
The test substances are used in triplicates in concentrations of 0.1-200 μM in the assay. Normally, the compounds are kept ready in DMSO solutions and diluted down to a maximum DMSO concentration of 2% for the assay.
With the aid of the assay described, the activity of the active substances is determined in relation to activation of the TRPM8 channel. This is done in a concentration-dependent manner. As a standard, 6 to 10 concentrations are measured for each active substance. From the determined activity values, the EC50 value can be determined as the inflection point of the sigmoidal curve using a mathematical method (4-parameter or 5-parameter logistic curve fitting). These are standard methods of biochemistry that are quite familiar to the skilled person.

T1 sequence (Q7Z2W7 whole entry): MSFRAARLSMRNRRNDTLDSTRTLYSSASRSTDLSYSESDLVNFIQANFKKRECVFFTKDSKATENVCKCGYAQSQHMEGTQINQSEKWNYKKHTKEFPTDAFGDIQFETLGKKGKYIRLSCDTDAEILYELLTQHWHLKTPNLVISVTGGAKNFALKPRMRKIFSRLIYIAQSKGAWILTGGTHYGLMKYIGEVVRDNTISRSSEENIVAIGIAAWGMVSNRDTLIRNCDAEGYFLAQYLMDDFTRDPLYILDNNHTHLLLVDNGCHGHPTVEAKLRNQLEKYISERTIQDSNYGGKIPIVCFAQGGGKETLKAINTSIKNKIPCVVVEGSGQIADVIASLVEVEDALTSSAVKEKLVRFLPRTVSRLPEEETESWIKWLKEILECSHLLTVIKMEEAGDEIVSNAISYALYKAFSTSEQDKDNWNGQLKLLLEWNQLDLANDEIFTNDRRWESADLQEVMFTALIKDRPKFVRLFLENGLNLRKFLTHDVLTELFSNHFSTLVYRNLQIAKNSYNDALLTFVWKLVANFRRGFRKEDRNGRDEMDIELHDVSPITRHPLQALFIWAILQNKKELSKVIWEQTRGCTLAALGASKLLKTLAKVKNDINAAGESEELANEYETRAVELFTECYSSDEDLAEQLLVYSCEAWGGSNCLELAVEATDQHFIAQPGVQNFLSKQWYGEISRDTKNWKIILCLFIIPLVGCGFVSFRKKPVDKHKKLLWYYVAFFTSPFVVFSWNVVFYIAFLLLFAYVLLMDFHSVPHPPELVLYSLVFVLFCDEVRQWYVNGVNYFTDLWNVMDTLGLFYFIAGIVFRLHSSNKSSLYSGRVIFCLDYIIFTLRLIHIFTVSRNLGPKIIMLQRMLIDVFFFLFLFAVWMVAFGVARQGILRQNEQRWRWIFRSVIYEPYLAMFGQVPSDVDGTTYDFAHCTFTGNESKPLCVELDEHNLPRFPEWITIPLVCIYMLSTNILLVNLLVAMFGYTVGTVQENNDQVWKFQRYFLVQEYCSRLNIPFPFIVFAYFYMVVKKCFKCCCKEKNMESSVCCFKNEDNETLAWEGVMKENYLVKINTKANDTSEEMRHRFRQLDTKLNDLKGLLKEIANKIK

| Relative TRPM8 activation (%) | Compound |
| --- | --- |
| 2.4% | Cc1ccc(N2CCC(C(=O)NCc3cccc4c3OCO4)CC2)nc1 [Compound 5 a] |
| −0.8% | CCCC1CCN(c2cc(CNCc3cccc4c3OCO4)ccn2)CC1 [Compound 18 a] |
| 3.4% | CCN(Cc1ccnc(N2CCC(C)CC2)c1)Cc1cccc2c1OCO2 [Compound 19 a] |
| 3% | c1cc(CNCc2ccnc(-n3cccc3)c2)c2c(c1)OCO2 [Compound 22 a] |
| 3.6% | c1ccc(-c2cccc(CNCc3cccc4c3OCO4)c2)nc1 [Compound 22 c] |
| 0% | c1ccc(-c2cc(CNCc3cccc4c3OCO4)co2)cc1 [Compound 31 a] |
| 1.3% | c1cc(CNCc2cc3ccccc3o2)c2c(c1)OCO2 [Compound 32 a] |
| 0% | c1ccc(-c2cc(CNCc3cccc4c3OCO4)cs2)cc1 [Compound 43 a] |
| 0% | O=C(NCc1cccc2c1OCO2)c1ccnc(N2CCCCC2)c1 [Compound 51 a] |

Same assay, conditions: HEK293-TRPM8 cells, Fluo-4; read-out: Activity in vitro assay (EC50)

| EC50 | Compound |
| --- | --- |
| 6.95 nM | COc1ccc(CNCc2ccnc(N3CCCCC3)c2)cc1 [Compound 87] |
| 115 nM | c1cc(CNCc2ccnc(N3CCCCC3)c2)c2c(c1)OCO2 [Example 1] |
| 13000 nM | c1cc(CNCc2ccnc(N3CCOCC3)c2)c2c(c1)OCO2 [Example 2] |
| 150 nM | CC(NCc1cccc2c1OCO2)c1ccnc(N2CCCCC2)c1 (centres unmarked) [Example 8] |
| 8350 nM | CC(C)C(NCc1cccc2c1OCO2)c1ccnc(N2CCCCC2)c1 (centres unmarked) [Example 11] |
| 2010 nM | CC1CCN(c2cc(CNCc3cccc4c3OCO4)ccn2)CC1 [Example 12] |
| 600 nM | CC1CCCN(c2cc(CNCc3cccc4c3OCO4)ccn2)C1 (centres unmarked) [Example 13] |
| 330 nM | CC1CCCCN1c1cc(CNCc2cccc3c2OCO3)ccn1 (centres unmarked) [Example 14] |
| 2630 nM | CC1(C)CCN(c2cc(CNCc3cccc4c3OCO4)ccn2)CC1 [Example 15] |
| 2530 nM | CC1CC(C)CN(c2cc(CNCc3cccc4c3OCO4)ccn2)C1 (centres unmarked) [Example 16] |
| 720 nM | CC1(C)CCCN(c2cc(CNCc3cccc4c3OCO4)ccn2)C1 [Example 17] |
| 2010 nM | CCC1CCCN(c2cc(CNCc3cccc4c3OCO4)ccn2)C1 (centres unmarked) [Example 18] |
| 1190 nM | c1cc(CNCc2ccnc(N3CCSCC3)c2)c2c(c1)OCO2 [Example 22] |
| 760 nM | COc1cccc(CNCc2ccnc(N3CCCCC3)c2)c1OC [Example 23] |
| 1110 nM | CCOc1cccc(CNCc2ccnc(N3CCCCC3)c2)c1OC [Example 24] |
| 5860 nM | CCOc1cccc(CNCc2ccnc(N3CCCCC3)c2)c1OCC [Example 25] |
| 100 nM and ≤ 1000 nM | COc1ccc(CNCc2ccnc(N3CCCCC3)c2)cc1 [Example 27] |
| 6500 nM | CSc1cc(CNCc2cccc3c2OCO3)ccn1 [Example 29] |
| 800 nM | c1cc(CCNCCc2ccnc(N3CCCCC3)c2)c2c(c1)OCO2 [Example 34] |
| 60 nM | c1ccc(CNCc2ccnc(N3CCCCC3)c2)cc1 [Example 39] |
| 150 nM | Cc1ccc(CNCc2ccnc(N3CCCCC3)c2)cc1 [Example 41] |
| 600 nM | COc1cccc(CNCc2ccnc(N3CCCCC3)c2)c1 [Example 49] |
| 15800 nM | COc1ccc(CNCc2ccnc(N3CCSCC3)c2)cc1 [Example 58] |
| 1770 nM | COc1ccc(CNCc2cccc(N3CCCC3)c2)cc1 [Example 64] |
| 1720 nM | CCNC(=O)[C@@H]1C[C@H](C)CC[C@H]1C(C)C [WS-3, L-menthanecarboxylic acid-N-ethylamide, reference compound] |
